# According to PubChem BioAssay (NCI):
# Where “and” joins values, the source holds several entries; their conditions need not be identical. Equal entries are not always repeated.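 48-hour exposure; five concentrations; linearly interpolated endpoints. Abbreviation: GI50, concentration required for 50% inhibition of growth. The concentration for full growth arrest is given as TGI.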
# Experiments:
# Assay in all cases: NCI anticancer screen, dose series, 48 h
# [1] = test system: SW-620 colon
# [2] = test system: CAKI-1 renal
# [3] = test system: SNB-78 CNS
# [4] = test system: SK-MEL-28 melanoma
# [5] = test system: OVCAR-8 ovarian
# [6] = test system: HT29 colon
# [7] = test system: HOP-62 NSCLC
# [8] = test system: OVCAR-4 ovarian
# [9] = test system: HS 578T breast
# [10] = test system: HOP-18 NSCLC
smiles,measurement,setting,value
Cc1cc2c(cc1C)[n+](=O)c(C(=O)/C=C/c1ccc3c(c1)OCO3)c(C)n2[O-],TGI,[1],> 100 µM
same,TGI,[2],> 89 µM
same,TGI,[3],> 100 µM
same,TGI,[4],> 100 µM
same,TGI,[5],> 100 µM
same,TGI,[6],> 100 µM
same,TGI,[7],59.1 µM
same,TGI,[8],> 100 µM
same,TGI,[9],64 µM
same,TGI,[10],> 100 µM
O=C1C=CC(=O)C2C1Cc1ccccc1C2c1ccccc1 (stereo unspecified),TGI,[1],71 µM
same,TGI,[2],> 100 µM
same,TGI,[4],> 100 µM
same,TGI,[5],78 µM
same,TGI,[6],> 100 µM
same,TGI,[7],> 100 µM
same,TGI,[8],46 µM
same,TGI,[10],> 100 µM
O=S(=O)(c1ccccc1)c1nccs1,TGI,[1],> 100 µM
same,TGI,[2],> 100 µM
same,TGI,[3],> 100 µM
same,TGI,[4],> 100 µM
same,TGI,[5],> 100 µM
same,TGI,[6],> 100 µM
same,TGI,[7],> 100 µM
same,TGI,[8],> 100 µM
same,TGI,[10],> 100 µM
COc1cccc2c1C(=O)c1c(O)c3c(c(O)c1C2=O)C[C@@](O)(C(C)=O)C[C@@H]3OC1CC([N+]([O-])(Cc2ccccc2)Cc2ccccc2)C(O)C(C)O1 (stereo partly specified),TGI,[1],2.54 µM
same,TGI,[2],2.47 µM
same,TGI,[5],14.9 µM
same,TGI,[6],3.14 µM
same,TGI,[7],2.98 µM
same,TGI,[8],4.17 µM
same,TGI,[10],3.55 µM
C#CCN(N=O)C(=O)NCCCCC(NC(=O)OCc1ccccc1)C(=O)OCc1ccccc1 (stereo unspecified),TGI,[1],31.1 µM
same,TGI,[2],56.6 µM
same,TGI,[3],> 100 µM
same,TGI,[4],> 100 µM
same,TGI,[5],> 100 µM
same,TGI,[6],> 100 µM
same,TGI,[7],> 100 µM
same,TGI,[8],> 100 µM
same,TGI,[10],> 100 µM
CC1(C)OC2CC3COC(=O)C3CC2O1 (stereo unspecified),TGI,[1],> 100 µM
same,TGI,[2],> 100 µM
same,TGI,[3],> 100 µM
same,TGI,[4],> 100 µM
same,TGI,[5],> 100 µM
same,TGI,[6],> 100 µM
same,TGI,[7],> 100 µM
same,TGI,[8],> 100 µM
same,TGI,[10],> 100 µM
CCOP(=O)(OCC)/C(C#N)=C\c1ccsc1,TGI,[1],> 100 µM
same,TGI,[2],> 100 µM
same,TGI,[3],> 100 µM
same,TGI,[4],> 100 µM
same,TGI,[5],> 100 µM
same,TGI,[6],> 100 µM
same,TGI,[7],> 100 µM
same,TGI,[8],> 100 µM
same,TGI,[10],> 100 µM
O=C(Nc1cc(Cl)ccc1Cl)c1cc2cccc(Br)c2oc1=O,TGI,[1],> 100 µM
same,TGI,[4],> 100 µM
same,TGI,[5],> 100 µM
same,TGI,[6],> 100 µM
same,TGI,[7],> 100 µM
same,TGI,[10],> 100 µM
CN(C)CCNC(=O)c1cccc2nc3ccc4cccnc4c3nc12,TGI,[1],4.92 µM
same,TGI,[2],6.37 µM
same,TGI,[3],11.3 µM
same,TGI,[4],2.28 µM
same,TGI,[5],7.42 µM
same,TGI,[6],4.88 µM
same,TGI,[7],1.86 µM
same,TGI,[8],3.21 µM
same,TGI,[10],6.66 µM
CN(C)C(=S)/N=c1\ssc(=S)n1Cc1cccs1,TGI,[1],> 100 µM
same,TGI,[2],> 91.4 µM
same,TGI,[3],> 100 µM
same,TGI,[4],> 100 µM
same,TGI,[5],52.9 µM
same,TGI,[6],> 100 µM
same,TGI,[7],81.3 µM
same,TGI,[8],> 91.7 µM
same,TGI,[9],5.17 µM
same,TGI,[10],> 100 µM
COc1cc2c(c(O)c1C)C(=O)CC(c1ccccc1)O2 (stereo unspecified),TGI,[1],> 10 µM
same,TGI,[2],> 100 µM
same,TGI,[3],> 100 µM
same,TGI,[4],> 100 µM
same,TGI,[5],> 100 µM
same,TGI,[6],> 10 µM
same,TGI,[7],> 100 µM
same,TGI,[8],> 10 µM
same,TGI,[10],> 100 µM
CC(N)Cc1ccc(Cl)cc1 (stereo unspecified),TGI,[1],> 100 µM
same,TGI,[2],> 100 µM
same,TGI,[4],> 100 µM
same,TGI,[5],> 100 µM
same,TGI,[6],> 100 µM
same,TGI,[7],> 100 µM
same,TGI,[8],> 100 µM
same,TGI,[10],> 100 µM
Cn1cnc([N+](=O)[O-])c1Sc1nnnn1C,TGI,[1],26 µM
same,TGI,[2],31.8 µM
same,TGI,[3],30.2 µM
same,TGI,[4],27.3 µM
same,TGI,[5],33.2 µM
same,TGI,[6],40.5 µM
same,TGI,[7],> 100 µM
same,TGI,[8],30.8 µM
same,TGI,[10],21.5 µM
COc1ccc2c3c(c(C(=O)O)oc13)CCC2,TGI,[1],> 100 µM
same,TGI,[3],> 100 µM
same,TGI,[4],> 100 µM
same,TGI,[5],> 100 µM
same,TGI,[6],> 100 µM
same,TGI,[7],> 100 µM
same,TGI,[8],> 100 µM
CCCN(CCC)CCc1cc(C(C)=O)n(S(=O)(=O)c2ccc(C)cc2)c1,TGI,[1],> 100 µM
same,TGI,[2],> 100 µM
same,TGI,[3],> 100 µM
same,TGI,[4],> 100 µM
same,TGI,[5],> 100 µM
same,TGI,[6],> 100 µM
same,TGI,[7],> 100 µM
same,TGI,[8],> 100 µM
same,TGI,[10],> 100 µM
CC(C)(CN1CCOCC1)C(=O)/C=C/c1ccc(/C=C/C(=O)C(C)(C)CN2CCOCC2)cc1,TGI,[2],3.78 µM
same,TGI,[3],3.07 µM
same,TGI,[5],7.52 µM
same,TGI,[6],1.88 µM
same,TGI,[7],4.79 µM
same,TGI,[8],2.4 µM
Cc1cc(Br)cc(C)c1NC(=O)C(=O)C(C(=O)c1ccncc1)C1OC(=O)c2ccccc21 (stereo unspecified),TGI,[1],> 100 µM
same,TGI,[2],> 100 µM
same,TGI,[3],> 100 µM
same,TGI,[5],> 100 µM
same,TGI,[7],> 100 µM
same,TGI,[8],> 100 µM
same,TGI,[10],> 100 µM
NCCOCn1cc(Cc2cccc(OCc3ccccc3)c2)c(=O)[nH]c1=O,TGI,[1],> 100 µM
same,TGI,[3],> 100 µM
same,TGI,[4],> 100 µM
same,TGI,[5],> 100 µM
same,TGI,[6],> 100 µM
same,TGI,[8],> 100 µM
same,TGI,[10],> 100 µM
COC1CC(C)C(OC)c2cc(O)cc(c2O)NC(=O)/C(C)=C/C=C\C(C)C(OC(N)=O)/C(C)=C\C(C)C1OC (stereo unspecified),GI50,[1],0.0544 µM and 0.0649 µM
same,TGI,[1],3.7 µM and 3.97 µM
same,GI50,[2],6.93 µM and 7.45 µM
same,TGI,[2],16.3 µM and 14.4 µM
same,TGI,[3],18.3 µM
same,GI50,[4],0.291 µM
same,TGI,[4],6.89 µM and 9.62 µM
same,GI50,[5],0.704 µM and 0.602 µM
same,TGI,[5],11.8 µM and 26.9 µM
same,GI50,[6],0.0526 µM and 0.116 µM
same,TGI,[6],12.2 µM and 10.3 µM
same,GI50,[7],0.413 µM
same,TGI,[7],36.9 µM and 12.2 µM
same,GI50,[8],2.51 µM
same,TGI,[8],7.87 µM and 10.1 µM
same,GI50,[9],0.511 µM and 0.758 µM
same,TGI,[9],20.8 µM and 6.92 µM
same,TGI,[10],16.5 µM
